Measured values: patent US20180369186A1, “METHOD FOR MODULATING AUTOPHAGY AND APPLICATIONS THEREOF” (JAWAHARLAL NEHRU CENTRE FOR ADVANCED SCIENTIFIC RESEARCH, priority 2015, published 2018)
Several values for one entry are separate records, joined by “and”; a condition that tells them apart may be missing. Equal values may be shown once.

Legend:
[1] = tested on: lace plant (Aponogeton madagascariensis) cells; test: Lace plant leaf MDC staining of punctate structures; format: cell-based; conditions: 2 hours; 5 μM wortmannin, 50 μM Bay11, 1 μM concanamycin A, rapamycin, 50 μM ZPCK; control 0.99±0.12
Experimental: Axenic lace plant cultures are grown in magenta boxes and prepared according to Gunawardena et al. Leaves in the window stage are removed from the corm and rinsed thoroughly with distilled water prior to being sectioned into 2 mm^2 pieces. For starvation treatments, window stage leaves are removed from the plant, placed in distilled water and kept in the dark overnight.
Leaf sections are stained with monodansylcadaverine (MDC; 300 μM) (Sigma, D4008) and simultaneously treated with autophagy modulators for 2 hours in the dark. (1 hour vacuum infiltration at 15 psi). Treatment times, along with stain and modulator applications are optimized using concentration gradients followed by microscopy. The optimized concentrations are 5 μM rapamycin (Enzo Life Sciences (BML A275-0005), 5 μM wortmannin (Santa Cruz Biotechnology, sc-3505), 1 μM concanamycin A (Santa Cruz Biotechnology, sc-202111), 50 μM Bay 11 (Sigma, B5556) and 50 μM ZPCK (Sigma, 860794).
Tissue sections are then rinsed and mounted in distilled water prior to being scanned using a Nikon Eclipse Ti confocal microscope (Nikon 40X/1.30, Plan Fluor, 405 nm excitation and 450/30 nm emission). Areoles in the early phases of PCD are scanned to avoid cellular debris. The mean number of puncta are quantified for each treatment group with a minimum of four independent experiments using NIS Elements Advanced Research software. Additionally, starvation treatment leaves are also exposed to 5 μM, wortmannin, 50 μM Bay11 and 50 μM ZPCK treatments and then qualitatively assessed via confocal microscopy.

Atg8 = Atg8 immunolocalization in lace plant; format: cell-based, Aponogeton madagascariensis; conditions: two hours; same modulator concentrations as MDC; control 0.90±0.08
Experimental: Whole leaves are treated for two hours prior to fixation in 100% Methanol at 37° C. and then hydrophilized to 20% methanol by adding distilled water at 60° C. every two minutes for 32 minutes. Samples are then sectioned and placed on a multiwall slide and allowed to air dry for 10 minutes to facilitate membrane permeabilization. Blocking is done for 30 minutes at 37° C. with 4% low fat milk powder in 1× microtubule stabilization buffer MTSB (Modified 2× MTSB stock solution: 15 g PIPES, 1.9 g EDTA, 1.22 g MgSO4*7H2O and 2.5 g KOH—pH 7.0). Primary antibody incubation for anti-rabbit ATG8 (Agrisera, AS14 2769) is done at a 1:1000 dilution in 1× MTSB for 30 minutes at 37° C. Samples are then washed for 5 minutes, 3 times with 1× MTSB. Secondary antibody incubation with Goat anti-rabbit Dylight 488 (Agrisera AS09 633) at a 1:2000 dilution in 1× MTSB is done for 30 minutes at 37° C. and then samples are rinsed as above. Tissues are mounted in Mowiol 4-88 solution (Sigma, 81381) and scanned via confocal microscopy as mentioned above. The mean number of puncta per cell is determined using maximum intensity projections (MIPs) for each replicate. The total number of cells within a field of view are counted manually and the number of puncta are counted automatically using ImageJ.

DAergic neurons in SNpc = test: MPTP mouse model: LC3 and A11 puncta in DAergic neurons of SNpc; format: in vivo; conditions: MPTP treated cohort
Experimental: The sequential immunolabeling procedure is used to co-label the TH and LC3 and/or A11. First, the midbrain sections are equilibrated with 0.1 M PBS (pH 7.4) for 10 min and then incubated with buffered bovine serum albumin (3%) for 4 h to block non-specific epitopes. Then, the sections are incubated in rabbit anti-LC3 antibody (1:1000) and/or anti-oligomer antibody (A11, 1:1000) for 72 h at 4° C. After subsequent washes, the sections are incubated in corresponding fluorescent secondary antibody (1:200) at 4° C., overnight.
Co-labeling with TH is performed on the same sections using rabbit anti-TH antibody (1:500), followed by secondary labeling. PBST (0.01 M, pH 7.4) is used as both working and washing buffer. Sections are then mounted using Vectashield hardset mounting medium.

[2] = tested on: TH+ dopaminergic neurons in SNpc; test: MPTP mouse model: TH+ dopaminergic neurons in SNpc (stereology, densitometry, volume); format: in vivo, mice
Experimental: As described by Vernice Jackson-Lewis & Serge Przedborski (2007), 23.4 mg/kg MPTP.HCl (equivalent to 20 mg/kg free base) in 10 ml/kg body wt. of saline is administered intraperitoneally (i.p.) for 4 times at 2 h intervals.
All mice are sacrificed 9 days post MPTP administration and brains are processed for immunohistochemistry.
Mice are anaesthetized using Halothane BP (Piramal Healthcare) inhalation and perfused intracardially with normal saline followed by 4% PFA in 0.1 M phosphate buffer, pH 7.4. Brains are removed quickly and post-fixed with 4% PFA for 24 h-48 h at 4° C. Following cryoprotection in 15% and 30% sucrose, 40 μm thick coronal cryosections of midbrain are collected serially on gelatinized slides. Immunoperoxidase labelling protocol as identical to that reported. Briefly, endogenous peroxidase is quenched using H2O2 (0.1%) in methanol (70%), followed by blocking of non-specific staining by buffered solution (3%) of bovine serum albumin for 4 h at room temperature. Sections are incubated with TH primary antibody (1:500) followed by biotin conjugated secondary antibody (1:200 dilution, Vector Laboratories). Tertiary labelling is performed with avidin-biotin complex solution (1:100, Vector Laboratories). Staining is visualized using 3′-3′-diaminobenzidine (0.05%) as a chromogen in a solution of 0.1M acetate imidazole buffer (pH 7.4) and H2O2 (0.1%). Negative controls are processed identically, except that primary antibody is replaced with dilution buffer.
As described by Y. Fu et al., SNpcis delineated using the 4× objective of Olympus BX61 Microscope (Olympus) equipped with Stereo Investigator Software Version 7.2 (MicroBrightField). Stereological quantification is performed using optical fractionator probe with slight modifications(P. A. Alladi et al.). Briefly, every sixth midbrain section containing SNpc is chosen and TH^+ cells are counted under 100× objective, with a regular grid interval of 22500 μm^2 (x=150 μm, y=150 μm) and counting frame with an area of 3600 μm^2 (x=60 μm, y=60 μm) (FIG. 10B). Mounted thickness is determined at every fifth site, averaging to 25 μm. Guard zone 4 μm is applied on either side, thus providing 17 μm of z-dimension within optical dissector. The quantification is performed starting with first anterior appearance of TH^+ neurons in SNpc to caudal most part. The SNpc volume is determined by planimetry (FIG. 10C) and total numbers of neurons according to mean measured thickness are noted.
High magnification images of TH stained nigral DAergic neurons, captured for offline assessment of Tyrosine Hydroxylase (TH) enzyme expression levels=used. Expression intensity is measured using a Windows based image analysis system (Q Win V3, Leica Systems). Cumulative mean is derived from the values obtained from sampling, approximately 200 DAergic neurons per animal. Intensity output is measured on a grey scale of 0-255, where 0 equals intense staining and 255 means absence of staining.
The mice are distributed into three groups' viz., vehicle, MPTP and MPTP+XCT 790 injected respectively. The vehicle group receives intraperitoneal injections of dimethyl sulfoxide (DMSO) injections i.e. the solvent. The MPTP group receives 23.4 mg/kg MPTP.HCl in 10 ml/kg body wt. of saline is administered intraperitoneally for 4 times at 2 h interval. The MPTP+XCT 790 group mice are injected with 5 mg/kg body wt, of XCT 790 dissolved in DMSO, alongside the first MPTP injection. […]

α-synuclein toxicity = test: S. cerevisiae α-synuclein toxicity model, growth assay; format: cell-based; conditions: WT α-synuclein-EGFP strain; 50 μM
Experimental: To screen small molecule library LOPAC1280 in S. cerevisiae SNCA toxicity model, working plates containing 50 μM drugs in 1.5% DMSO (190 compounds/plate) are prepared in a 384 well format. WT SNCA-GFP with or without small molecules and untreated WT GFP are grown under optimized conditions (80 μl, 30° C. and 420 rpm) for 36 h in a plate reader (Varioskan Flash, Thermo Scientific) in duplicates with automatic absorbance (A600) recording every 20 min. Growth curves of untreated WT GFP and WT SNCA-GFP strains are plotted and mid to late exponential phase time point of untreated WT GFP strain is chosen as reference for data analysis. Its corresponding time point of untreated and drug treated WT SNCA-GFP strains are plotted separately in a box plot. Small molecules that rescued the growth lag by ≥3 SD units of untreated WT SNCA-GFP strain are considered as ‘Hits’.
Growth assays: In a 384 well plate, appropriate yeast strains are seeded (A600˜0.07) with and without drugs and incubated (80 μl, 30° C. and 420 rpm) in a multiplate reader (Varioskan Flash, Thermo Scientific) for 48 h with automatic absorbance (A600) recording every 20 min. Growth curves are plotted and analyzed using GraphPad Prism.
Induction of α-synuclein-EGFP aggregates: To induce α-synuclein-EGFP aggregates, the corresponding strains are inoculated in SD-Ura medium, Secondary culture is inoculated from primary inoculum and incubated till A600 reaches 0.8/ml. Cells are washed twice with sterile water and aggregates are induced by adding SG-Ura for 12-16 h.
To screen small molecule library LOPAC^1280 in S. cerevisiae α-synuclein toxicity model, working plates containing 50 μM drugs (small molecule) in 1.5% DMSO (190 compounds/plate) are prepared in a 384 well format. WT α-synuclein-EGFP with and without small molecules and untreated WT EGFP are grown under optimized conditions (80 μl, 30° C. and 420 rpm) for 36 h in a plate reader (Varioskan Flash, Thermo Scientific) in duplicates with automatic absorbance (A600) recording every 20 min.
Growth curves of untreated WT EGFP and WI α-synuclein-EGFP strains are plotted and mid to late exponential phase time point of untreated WT EGFP strain is chosen as reference for data analysis. Its corresponding time point of untreated and drug treated WT α-synuclein-EGFP strains are plotted separately in a box plot.
Appropriate yeast strains are seeded (A600 ˜0.07) with or without drugs in a 384-well plate and incubated (420 rpm, 30° C. and 80 μl) in a multiplate reader (Varioskan Flash, Thermo Scientific) for 48 h that records absorbance (A600) automatically for every 20 min. Growth curves are plotted using GraphPad Prism.

C/C=C/[C@H]1O[C@@](O)([C@@H](C)[C@H](O)[C@H](C)[C@H]2OC(=O)/C(OC)=C/C(C)=C/[C@@H](C)[C@@H](O)[C@@H](CC)[C@@H](O)[C@H](C)C/C(C)=C/C=C/[C@@H]2OC)C[C@@H](O[C@H]2C[C@@H](O)[C@H](OC(N)=O)[C@@H](C)O2)[C@@H]1C [concanamycin A]
mean number of punctate structures per cell (MDC) [1]: 1.91±0.13 | mean number of Atg8 puncta per cell (Atg8): 2.43±0.29

COC[C@H]1OC(=O)c2coc3c2[C@@]1(C)C1=C(C3=O)[C@@H]2CCC(=O)[C@@]2(C)C[C@H]1OC(C)=O [wortmannin]
mean number of punctate structures per cell (MDC) [1]: 0.26±0.03 | mean number of Atg8 puncta per cell (Atg8): 0.27±0.025

CO[C@H]1C[C@@H]2CC[C@@H](C)[C@@](O)(O2)C(=O)C(=O)N2CCCC[C@H]2C(=O)O[C@H]([C@H](C)C[C@@H]2CC[C@@H](O)[C@H](OC)C2)CC(=O)[C@H](C)/C=C(\C)[C@@H](O)[C@@H](OC)C(=O)[C@H](C)C[C@H](C)/C=C/C=C/C=C/1C [rapamycin]
mean number of punctate structures per cell (MDC) [1]: 2.31±0.25 | mean number of Atg8 puncta per cell (Atg8): 3.52±0.09

CN1CC=C(c2ccccc2)CC1 [MPTP, methyl-4-phenyl-1,2,3,6-tetrahydropyridine, reference compound]
increase of A11 puncta / aggregates, placebo/vehicle vs MPTP (DAergic neurons in SNpc): ~7 fold and ~6.5 fold | reduction in number and health of DA neurons, compared to control ([2]; MPTP 23 mg/kg): ~3 fold | dopaminergic neurons in SNpc lost, MPTP vs Vehicle ([2]; MPTP 23.4 mg/kg, 4 times): ~68%

N#C/C(=C\c1ccc(-c2cc(Cl)ccc2Cl)o1)C(=O)Nc1cccc2ncccc12 [Agk2, reference compound]
rescue of growth lag due to α-synuclein toxicity (α-synuclein toxicity): rescue growth lag
